Source: patent US10322995B2, “Substituted cyano cycloalkyl penta-2,4-dienes, cyano cycloalkyl pent-2-en-4-ynes, cyano heterocyclyl penta-2,4-dienes and cyano heterocyclyl pent-2-en-4-ynes as active substances against abiotic plant stress” (BAYER CROPSCIENCE AKTIENGESELLSCHAFT, priority 2014, dated 2019)

Legend:
Brassica napus (BRSNS) = test: In vivo analyses Part C: drought stress, appearance vs stressed control plants in categories (BRSNS); set-up: key: 0: no positive effect; 10: slight positive effect; 20: clear positive effect; 30: strong positive effect; conditions: appearance vs stressed control plants after recovery phase, efficacy range of 3-4 pots
Method: Seeds of monocotyledonous and dicotyledonous crop plants were sown in sandy loam in plastic or wood-fibre pots, covered with soil or sand and cultivated in a greenhouse under good growth conditions. The test plants were treated at the early leaf stage (BBCH10-BBCH13). To assure uniform water supply before commencement of stress, the potted plants were supplied with water by dam irrigation prior to substance application. The inventive compounds were first formulated as wettable powders (WP) or dissolved in a solvent mixture. The further dilution was effected with water supplemented with 0.2% wetting agent (e.g. agrotin). The finished spray liquor was sprayed onto the green parts of the plant at an equivalent water application rate of 600 I/ha. Substance application was followed immediately by stress treatment of the plants. For this purpose, the wood-fibre pots were transferred in plastic inserts in order to prevent them from subsequently drying out too quickly. Drought stress was induced by gradual drying out under the following conditions: “Day”: 14 hours with illumination at 26-30° C. “Night”: 10 hours without illumination at 18-20° C. The duration of the respective stress phases was guided mainly by the condition of the stressed control plants. It was ended (by re-irrigating and transfer to a greenhouse with good growth conditions) as soon as irreversible damage was observed on the stressed control plants. The end of the stress phase was followed by an about 4-7-day recovery phase, during which the plants were once again kept under good growth conditions in a greenhouse. The duration of the recovery phase was guided mainly by when the trial plants had attained a state which enabled visual scoring of potential effects, and was therefore variable. Once this juncture had been reached, the appearance of the plants treated with test substances was recorded in comparison to the stressed control plants by the following categories: [table] For each substance and dosage, 3-4 pots were treated and evaluated. BRSNS=Brassica napus

[1] = biological target: T1, phosphatase ABI1 via the co-regulator RCAR11/PYR1 (Arabidopsis thaliana, UniProt O49686+P49597); test: In vitro assay: inhibition of the phosphatase ABI1 via the co-regulator RCAR11/PYR1, MUP dephosphorylation, fluorescence; type: biochemical; conditions: concentration of 5 mM of the substance in a solution of DMSO and water; MUP dephosphorylation, fluorescence 460 nm
T1 sequence (O49686 1-191): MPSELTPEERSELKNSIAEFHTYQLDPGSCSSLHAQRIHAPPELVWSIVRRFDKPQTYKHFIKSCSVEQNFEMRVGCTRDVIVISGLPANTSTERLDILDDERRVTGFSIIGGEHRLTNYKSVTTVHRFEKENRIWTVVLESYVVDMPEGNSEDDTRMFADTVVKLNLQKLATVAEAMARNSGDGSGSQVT
T1 sequence (P49597 1-434): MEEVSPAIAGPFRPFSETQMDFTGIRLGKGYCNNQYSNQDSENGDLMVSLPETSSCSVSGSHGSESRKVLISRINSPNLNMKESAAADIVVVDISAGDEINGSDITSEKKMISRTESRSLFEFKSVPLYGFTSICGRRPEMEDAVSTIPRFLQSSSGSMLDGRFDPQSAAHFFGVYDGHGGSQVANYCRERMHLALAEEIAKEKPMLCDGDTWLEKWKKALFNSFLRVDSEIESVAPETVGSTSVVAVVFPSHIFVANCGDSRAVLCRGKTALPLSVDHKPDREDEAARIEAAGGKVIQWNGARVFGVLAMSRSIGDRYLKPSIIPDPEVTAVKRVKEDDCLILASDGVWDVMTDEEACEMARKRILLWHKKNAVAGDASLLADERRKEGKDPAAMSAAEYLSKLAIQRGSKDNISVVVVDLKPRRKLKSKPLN
From the text: Effects of the phytohormone abscisic acid (ABA) on the behaviour of plants under abiotic stress and the mechanism of action of ABA are described in the literature (cf. Abrams et al, WO97/23441, Cutler, Park et al. Science, 2009, 324, 1068; Grill et al. Science, 2009, 324, 1064; Tanokura et al. Biophysics, 2011, 7, 123; Schroeder et al. Plant J. 2010, 61, 290). Therefore, it is possible with the aid of a suitable in vitro test system to derive a correlation between the action of ABA and the stress response of a plant under abiotic stress. Under drought stress, plants form the phytohormone abscisic acid (ABA). This binds, along with a co-regulator (Regulatory Component of ABA-Receptor=RCAR according to Grill et al. Science, 2009, 324, 1064 or PYR/PYL according to Cutler et al. Science, 2009, 324, 1068), to a phosphatase (e.g. ABI1, a type 2C protein phosphatase, also abbreviated to PP2C) and inhibits its activity. As a result, a “downstream” kinase (e.g. SnRK2) is no longer dephosphorylated. This kinase, which is thus active, via phosphorylation of transcription factors (e.g. AREB/ABF, vgl. Yoshida et al., Plant J. 2010, 61, 672), switches on a genetic protection programme to increase drought stress tolerance.
The assay described hereinafter utilizes the inhibition of the phosphatase ABI1 via the co-regulator RCAR11/PYR1 aus Arabidopsis thaliana.
For the determination of activity, the dephosphorylation of 4-methylumbelliferyl phosphate (MUP) was measured at 460 nm. The in vitro assay was conducted in Greiner 384-well PS microplates F-well, using two controls: a) dimethyl sulphoxide (DMSO) 0.5% (f.c.) and b) 5 μM (f.c.) abscisic acid (ABA). […] The substance solution thus obtained, if necessary, was stirred with esterase from porcine liver (EC 3.1.1.1) at room temperature for 3 h and centrifuged at 4000 rpm for 30 min. A total volume of 45 μl was introduced into each cavity of the microplate, having the following composition: • 1) 5 μl of substance solution, i.e. a) DMSO 5% or b) abscisic acid solution or c) the corresponding example compound of the general formula (I) dissolved in 5% DMSO. • 2) 20 μl of enzyme buffer mix, composed of a) 40% by vol. of enzyme buffer (10 ml contain equal proportions by volume of 500 mM Tris-HCl pH8, 500 mM NaCl, 3.33 mM MnCl2, 40 mM dithiothreitol (DTT)), b) 4% by vol. of ABI1 dilution (protein stock solution was diluted so as to give, after addition, a final concentration in the assay of 0.15 μg ABI1/well), c) 4% by vol. of RCAR11 dilution (enzyme stock was diluted so as to give, on addition of the dilution to the enzyme buffer mix, a final concentration in the assay of 0.30 μg enzyme/well), d) 5% by vol. of Tween20 (1%), e) 47% by vol. H2O bi-dist. • 3) 20 μl of substrate mix, composed of a) 10% by vol. of 500 mM Tris-HCl pH8, b) 10% by vol. of 500 mM NaCl, c) 10% by vol. of 3.33 mM MnCl2, d) 5% by vol. of 25 mM MUP, 5% by vol. of Tween20 (1%), 60% by vol. of H2O bi-dist.
Enzyme buffer mix and substrate mix were made up 5 minutes prior to the addition and warmed to a temperature of 35° C. On completion of pipetting of all the solutions and on completion of mixing, the plate was incubated at 35° C. for 20 minutes. Finally, a relative fluorescence measurement was made at 35° C. with a BMG Labtech “POLARstar Optima” microplate reader using a 340/10 nm excitation filter and a 460 nm emission filter. The efficacy of the compounds of the general formula (I) is reported in the table which follows using abscisic acid (No. 64) as comparative substance according to the following classification: ++++ (inhibition≥90%), +++ (90%>inhibition≥70%), ++ (70%>inhibition≥50%), +(50%>inhibition≥30%).
Effects of selected compounds of the general formula (I) in the above-described in vitro assay at a concentration of 5 mM of the substance of the general formula (I) in question in a solution of DMSO and water: […]

Compound | Effect (BRSNS) (Brassica napus (BRSNS); dosage 250 g/ha) | ABI1 inhibition [1] | Effect (BRSNS) (Brassica napus (BRSNS); dosage 25 g/ha)
COC(=O)C=C(C#CC(O)(c1ccc(C)cc1)C1(C#N)CC1)C(F)(F)F (racemic) [I.1-812] | 10-20 | +++ (90%>inhibition≥70%) | –
COC(=O)C=C(C)C=CC(O)(C1CC1)C1(C#N)CC1 (racemic) [I.2-543] | – | – | 30
CC/C(C#CC(O)(C1CCCCC1)C1(C#N)CC1)=C/C(=O)OC (stereo not drawn) [I.1-678] | 10-30 | ++++ (inhibition≥90%) | –
CC/C(C#CC(O)(C1CC1)C1(C#N)CC1)=C/C(=O)OC (stereo not drawn) [I.1-618] | – | ++++ (inhibition≥90%) | 30
CCCOC(=O)C=C(C=CC(O)(C(C)C)C1(C#N)CC1)CC (racemic) [I.2-507] | 30 | ++++ (inhibition≥90%) | –
CCC(C=CC(O)(C(C)C)C1(C#N)CC1)=CC(=O)OC (racemic) [I.2-102] | 10-20 | ++++ (inhibition≥90%) | –
CCCOC(=O)C=C(C#CC(O)(C(CC)CC)C1(C#N)CC1)C(F)(F)F (racemic) [I.1-887] | 10-20 | +++ (90%>inhibition≥70%) | –
CCC(C=CC(O)(C(CC)CC)C1(C#N)CC1)=CC(=O)OC (racemic) [I.2-583] | 10-30 | ++++ (inhibition≥90%) | –
